{
  "source": "patent EP0927178B1",
  "about": "“TRICYCLIC COMPOUNDS USEFUL FOR INHIBITION OF G-PROTEIN FUNCTION AND FOR TREATMENT OF PROLIFERATIVE DISEASES” (SCHERING CORPORATION, priority 1996, dated 1998)",
  "test_system": "COS Cell",
  "assay": "COS Cell IC50 (Cell-Based Assay)",
  "conditions": "procedure of WO 95/10516",
  "protocol": "FPT IC50 (inhibition of farnesyl protein transferase, in vitro enzyme assay) and COS Cell IC50 (Cell-Based Assay) were determined following the assay procedures described in WO 95/10516, published April 20, 1995. GGPT IC50 (inhibition of geranylgeranyl protein transferase, in vitro enzyme assay), Cell Mat Assay, and anti-tumor activity (in vivo anti-tumor studies) could be determined by the assay procedures described in WO 95/10516. The disclosure of WO 95/10516 is incorporated herein by reference thereto.",
  "data": [
    {"smiles": "NC(=O)N1CC[C@@H](CC(=O)N2CCC(C3c4ncc(Br)cc4CCc4cc(Cl)cc(Cl)c43)CC2)C1", "note": "(stereo partly drawn) [Example 2, 3(S) -[2-(4-(3-bromo-8,10-dichloro-6-11-dihydro-5-H-benzo[5,6]-cyclohepta[1,2-b]pyridin-11-yl)-1-piperidinyl]-2-oxoethyl]-1-pyrrolidinecarboxamide]", "values": [
      {"measurement": "IC50", "result": 30, "unit": "nM"}
    ]}
  ]
}
